Reference: patent publication US20080021026A1, “BENZOTHIOPHENE INHIBITORS OF RHO KINASE” (priority 2006, published 2008)
Read-outs that look alike come from different tables or passages of the source.

What was measured:
[1] = target: T1, recombinant N-terminal GST-tagged human Rho kinase 1 (ROCK1, amino acids 1-535) (Homo sapiens, UniProt Q13464); experiment: In vitro Rho kinase assay (luciferase-based ATP consumption), ROCK1; type: biochemical
T1 construct: ROCK1, amino acids 1-535; purchased Invitrogen Inc. PV-3691
Procedure, shortened: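 ATP depletion measured by firefly luciferase luminescence after 2 h at 30 °C, with inhibition raising signal and activity expressed relative to H-1152P. Reaction: 0.82 μg/ml recombinant GST-tagged ROCK1 (aa 1-535), S6 peptide 100 μg/ml, […], pH 7.5 Tris buffer.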

[2] = target: T2, recombinant N-terminal GST-tagged human Rho kinase 2 (ROCK2, amino acids 1-552) (Homo sapiens, UniProt O75116); experiment: In vitro Rho kinase assay (luciferase-based ATP consumption), ROCK2; type: biochemical
T2 construct: ROCK2, amino acids 1-552; purchased Invitrogen Inc. PV3759
Procedure, shortened: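 Luciferase-based luminescence of leftover ATP after 2 h at 30 °C, where inhibition raises signal, reports activity of GST-tagged ROCK2 (aa 1-552) at 0.82 μg/ml. Conditions: S6 peptide 100 μg/ml, […], pH 7.5 Tris buffer. Results given as percent of H-1152P control activity.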

[3] = recombinant GST-tagged human ROCK1, luciferase-based ATP consumption, read-out: ROCK1 IC50
[4] = recombinant GST-tagged human ROCK2, luciferase-based ATP consumption, read-out: ROCK2 IC50

T1 sequence (Q13464 1-535): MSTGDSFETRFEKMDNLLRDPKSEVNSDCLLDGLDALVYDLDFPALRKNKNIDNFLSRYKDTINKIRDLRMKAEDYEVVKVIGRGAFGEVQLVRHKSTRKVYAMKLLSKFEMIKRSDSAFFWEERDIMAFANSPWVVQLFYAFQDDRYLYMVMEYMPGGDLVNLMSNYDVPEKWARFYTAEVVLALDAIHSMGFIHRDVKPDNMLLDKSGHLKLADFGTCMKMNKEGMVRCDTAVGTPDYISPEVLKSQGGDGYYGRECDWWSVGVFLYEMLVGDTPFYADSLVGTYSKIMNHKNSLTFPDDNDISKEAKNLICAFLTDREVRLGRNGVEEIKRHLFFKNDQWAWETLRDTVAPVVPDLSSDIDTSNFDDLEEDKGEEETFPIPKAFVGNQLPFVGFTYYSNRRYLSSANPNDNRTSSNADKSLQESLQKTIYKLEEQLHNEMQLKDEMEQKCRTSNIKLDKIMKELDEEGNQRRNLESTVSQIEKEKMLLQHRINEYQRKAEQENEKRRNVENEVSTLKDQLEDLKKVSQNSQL
T2 sequence (O75116 1-552): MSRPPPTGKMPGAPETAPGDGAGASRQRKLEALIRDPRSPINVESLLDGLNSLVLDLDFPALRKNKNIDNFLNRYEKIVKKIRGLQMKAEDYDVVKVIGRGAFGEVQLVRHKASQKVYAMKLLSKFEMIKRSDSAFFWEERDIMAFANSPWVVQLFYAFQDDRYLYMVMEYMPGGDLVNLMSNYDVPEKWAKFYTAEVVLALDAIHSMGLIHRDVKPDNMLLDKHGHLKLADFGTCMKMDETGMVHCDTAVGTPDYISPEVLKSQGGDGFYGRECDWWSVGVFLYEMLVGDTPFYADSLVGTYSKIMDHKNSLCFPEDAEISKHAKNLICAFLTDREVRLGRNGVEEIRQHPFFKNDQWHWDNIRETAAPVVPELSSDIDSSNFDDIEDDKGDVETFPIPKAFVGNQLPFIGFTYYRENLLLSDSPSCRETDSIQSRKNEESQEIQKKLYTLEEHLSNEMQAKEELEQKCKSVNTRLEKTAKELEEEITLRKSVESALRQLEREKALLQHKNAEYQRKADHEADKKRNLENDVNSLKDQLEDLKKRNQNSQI

| SMILES | IC50 [1, 3] | IC50 [2, 4] | IC50 ([1]; ROCK1 IC50, recombinant GST-tagged human ROCK1, luciferase-based ATP consumption) | IC50 ([2]; ROCK2 IC50, recombinant GST-tagged human ROCK2, luciferase-based ATP consumption) |
| --- | --- | --- | --- | --- |
| Cc1c(-c2ccnc(N)n2)sc2ccc(Cc3cccc(OCCN4CCOCC4)c3)cc12 [Example 29, 4-(3-Methyl-5-(3-(2-morpholinoethoxy)benzyl)benzo[b]thiophen-2-yl)pyrimidin-2-amine] | < 5 µM | < 5 µM | – | – |
| Cc1c(-c2ccnc(N)n2)sc2ccc(Nc3cccc(NS(C)(=O)=O)c3)cc12 [Example 56, N-(3-(2-(2-Aminopyrimidin-4-yl)-3-methylbenzo[b]thiophen-5-ylamino)phenyl)methanesulfonamide] | < 5 µM | < 5 µM | – | – |
| CCN(CC)CCNC(=O)c1cccc(Cc2ccc3sc(-c4ccnc(N)n4)c(C)c3c2)c1 [Example 47, 3-((2-(2-Aminopyrimidin-4-yl)-3-methylbenzo[b]thiophen-5-yl)methyl)-N-(2-(diethylamino)ethyl)benzamide] | < 5 µM | < 5 µM | – | – |
| COc1ccc(NC(=O)c2cccc(Cc3ccc4sc(-c5ccnc(N)n5)c(C)c4c3)c2)cc1 [Example 46, 3-((2-(2-Aminopyrimidin-4-yl)-3-methylbenzo[b]thiophen-5-yl)methyl)-N-(4-methoxyphenyl)benzamide] | < 5 µM | < 5 µM | – | – |
| Cc1c(-c2ccnc(N)n2)sc2ccc(CNC(=O)CNC(=O)OC(C)(C)C)cc12 [Example 196, Cc1c(sc2ccc(CNC(═O)CNC(═O)OC(C)(C)C)cc12)-c3ccnc(N)n3] | < 5 µM | < 5 µM | – | – |
| CCc1ccc(C(=O)NCc2ccc3sc(-c4ccnc(N)n4)c(C)c3c2)cc1 [Example 137, CCc1ccc(cc1)C(═O)NCc2ccc3sc(c(C)c3c2)-c4ccnc(N)n4] | > 5 µM | > 5 µM | – | – |
| Cc1c(-c2ccnc(N)n2)sc2ccc(Cc3ccccc3)cc12 [Example 24, 4-(5-Benzyl-3-methylbenzo[b]thiophen-2-yl)pyrimidin-2-amine] | < 5 µM | < 5 µM | – | – |
| Cc1c(-c2ccnc(N)n2)sc2ccc(CNC(=O)C(Cl)(Cl)Cl)cc12 [Example 160, Cc1c(sc2ccc(CNC(═O)C(Cl)(Cl)Cl)cc12)-c3ccnc(N)n3] | < 5 µM | < 5 µM | – | – |
| COc1ccc2cc(C(C)C(=O)NCc3ccc4sc(-c5ccnc(N)n5)c(C)c4c3)ccc2c1 (stereo not shown) [Example 307, COc1ccc2cc(ccc2c1)[C](C)C(═O)NCc3ccc4sc(c(C)c4c3)-c5ccnc(N)n5] | < 5 µM | > 5 µM | – | – |
| CCCOc1ccc(C(=O)NCc2ccc3sc(-c4ccnc(N)n4)c(C)c3c2)cc1 [Example 213, CCCOc1ccc(cc1)C(═O)NCc2ccc3sc(c(C)c3c2)-c4ccnc(N)n4] | < 5 µM | > 5 µM | – | – |
| CCCCCc1ccc(C(=O)NCc2ccc3sc(-c4ccnc(N)n4)c(C)c3c2)cc1 [Example 251, CCCCCc1ccc(cc1)C(═O)NCc2ccc3sc(c(C)c3c2)-c4ccnc(N)n4] | < 5 µM | > 5 µM | – | – |
| Cc1c(-c2ccnc(N)n2)sc2ccc(Oc3ccccc3)cc12 [Example 79, 4-(3-Methyl-5-phenoxybenzo[b]thiophen-2-yl)pyrimidin-2-amine] | < 5 µM | < 5 µM | – | – |
| CC(=O)Oc1cccc(Cc2ccc3sc(-c4ccnc(N)n4)c(C)c3c2)c1 [Example 28, 3-((2-(2-Aminopyrimidin-4-yl)-3-methylbenzo[b]thiophen-5-yl)methyl)phenyl acetate] | < 5 µM | < 5 µM | – | – |
| Cc1c(-c2ccnc(N)n2)sc2ccc(Nc3cccc(OC(F)(F)F)c3)cc12 [Example 54, 4-(3-Methyl-5-(3-(trifluoromethoxy)phenylamino)benzo[b]thiophen-2-yl)pyrimidin-2-amine] | > 5 µM | > 5 µM | – | – |
| CNc1nccc(Nc2ccc3sc(-c4ccnc(N)n4)c(C)c3c2)n1 [Example 76, N^4-(2-(2-Aminopyrimidin-4-yl)-3-methylbenzo[b]thiophen-5-yl)-N^2-methyl pyrimidine-2,4-diamine] | < 5 µM | < 5 µM | – | – |
| Cc1c(-c2ccnc(N)n2)sc2ccc(Cc3cccc(OCCN(C)C)c3)cc12 [Example 30, 4-(5-(3-(2-(Dimethylamino)ethoxy)benzyl)-3-methylbenzo[b]thiophen-2-yl)pyrimidin-2-amine] | < 5 µM | < 5 µM | – | – |
| Cc1c(-c2cccnc2N)sc2ccc(Cl)cc12 [Example 11, 3-(5-Chloro-3-methylbenzo[b]thiophen-2-yl)pyridin-2-amine] | > 5 µM | > 5 µM | – | – |
| Cc1c(-c2ccnc(N)n2)sc2ccc(CNC(=O)c3cc([N+](=O)[O-])ccc3Cl)cc12 [Example 265, Cc1c(sc2ccc(CNC(═O)c3cc(ccc3Cl)[N+]([O−])═O)cc12)-c4ccnc(N)n4] | – | – | > 5 µM | < 5 µM |
| CC(=O)NCC(=O)NCc1ccc2sc(-c3ccnc(N)n3)c(C)c2c1 [Example 107, CC(═O)NCC(═O)NCc1ccc2sc(c(C)c2c1)-c3ccnc(N)n3] | > 5 µM | < 5 µM | – | – |
| Cc1c(-c2ccnc(N)n2)sc2ccc(Oc3cccc([N+](=O)[O-])c3)cc12 [Example 80, 4-(3-Methyl-5-(3-nitrophenoxy)benzo[b]thiophen-2-yl)pyrimidin-2-amine] | < 5 µM | < 5 µM | – | – |
| Cc1c(-c2ccnc(N)n2)sc2ccc(CNC(=O)c3c(O)ccc4ccccc34)cc12 [Example 237, Cc1c(sc2ccc(CNC(═O)c3c(O)ccc4ccccc34)cc12)-c5ccnc(N)n5] | < 5 µM | < 5 µM | – | – |
| Cc1c(-c2ccnc(N)n2)sc2ccc(CNC(=O)C3CN(C(=O)OC(C)(C)C)CCN3)cc12 (stereo not shown) [Example 308, Cc1c(sc2ccc(CNC(═O)[C]3CN(CCN3)C(═O)OC(C)(C)C)cc12)-c4ccnc(N)n4] | > 5 µM | > 5 µM | – | – |

Second part, led by results:

| IC50 [1, 3] | IC50 [2, 4] | SMILES | IC50 ([1]; ROCK1 IC50, recombinant GST-tagged human ROCK1, luciferase-based ATP consumption) | IC50 ([2]; ROCK2 IC50, recombinant GST-tagged human ROCK2, luciferase-based ATP consumption) |
| --- | --- | --- | --- | --- |
| < 5 µM | < 5 µM | Cc1ccc(C)c(C(=O)NCc2ccc3sc(-c4ccnc(N)n4)c(C)c3c2)c1 [Example 134, Cc1ccc(C)c(c1)C(═O)NCc2ccc3sc(c(C)c3c2)-c4ccnc(N)n4] | – | – |
| < 5 µM | < 5 µM | Cc1c(-c2ccnc(N)n2)sc2ccc(CNC(=O)c3ccc(C=O)cc3)cc12 [Example 130, Cc1c(sc2ccc(CNC(═O)c3ccc(C═O)cc3)cc12)-c4ccnc(N)n4] | – | – |
| < 5 µM | < 5 µM | Cc1c(-c2ccnc(N)n2)sc2ccc(CNC(=O)c3cc(C(C)C)cc(C(C)C)c3O)cc12 [Example 298, CC(C)c1cc(C(C)C)c(O)c(c1)C(═O)NCc2ccc3sc(c(C)c3c2)-c4ccnc(N)n4] | – | – |
| > 5 µM | < 5 µM | Cc1ccc(C(=O)NCc2ccc3sc(-c4ccnc(N)n4)c(C)c3c2)cc1Br [Example 287, Cc1ccc(cc1Br)C(═O)NCc2ccc3sc(c(C)c3c2)-c4ccnc(N)n4] | – | – |
| > 5 µM | < 5 µM | Cc1c(-c2ccnc(N)n2)sc2ccc(CNC(=O)c3cc(F)c(F)cc3[N+](=O)[O-])cc12 [Example 272, Cc1c(sc2ccc(CNC(═O)c3cc(F)c(F)cc3[N+]([O−])═O)cc12)-c4ccnc(N)n4] | – | – |
| > 5 µM | < 5 µM | Cc1c(-c2ccnc(N)n2)sc2ccc(CNC(=O)c3cn(C)cn3)cc12 [Example 114, Cc1c(sc2ccc(CNC(═O)c3cn(C)cn3)cc12)-c4ccnc(N)n4] | – | – |
| < 5 µM | < 5 µM | Cc1ccccc1CC(=O)NCc1ccc2sc(-c3ccnc(N)n3)c(C)c2c1 [Example 132, Cc1ccccc1CC(═O)NCc2ccc3sc(c(C)c3c2)-c4ccnc(N)n4] | – | – |
| < 5 µM | < 5 µM | COc1cc(Cl)ccc1C(=O)NCc1ccc2sc(-c3ccnc(N)n3)c(C)c2c1 [Example 233, COc1cc(Cl)ccc1C(═O)NCc2ccc3sc(c(C)c3c2)-c4ccnc(N)n4] | – | – |
| < 5 µM | < 5 µM | Cc1c(-c2ccnc(N)n2)sc2ccc(CNC(=O)c3cccc(Br)n3)cc12 [Example 270, Cc1c(sc2ccc(CNC(═O)c3cccc(Br)n3)cc12)-c4ccnc(N)n4] | – | – |
| > 5 µM | < 5 µM | Cc1c(-c2ccnc(N)n2)sc2ccc(CNC(=O)c3cncc(Br)c3)cc12 [Example 271, Cc1c(sc2ccc(CNC(═O)c3cncc(Br)c3)cc12)-c4ccnc(N)n4] | – | – |
| > 5 µM | < 5 µM | Cc1ccc(C(=O)NCc2ccc3sc(-c4ccnc(N)n4)c(C)c3c2)cc1F [Example 145, Cc1ccc(cc1F)C(═O)NCc2ccc3sc(c(C)c3c2)-c4ccnc(N)n4] | – | – |
| > 5 µM | > 5 µM | Cc1cc(C(=O)NCc2ccc3sc(-c4ccnc(N)n4)c(C)c3c2)ccc1Br [Example 286, Cc1cc(ccc1Br)C(═O)NCc2ccc3sc(c(C)c3c2)-c4ccnc(N)n4] | – | – |
| > 5 µM | < 5 µM | Cc1c(-c2ccnc(N)n2)sc2ccc(CNC(=O)c3ccncc3)cc12 [Example 110, Cc1c(sc2ccc(CNC(═O)c3ccncc3)cc12)-c4ccnc(N)n4] | – | – |
| > 5 µM | < 5 µM | Cc1c(-c2ccnc(N)n2)sc2ccc(CNC(=O)c3ccc(Cl)nc3)cc12 [Example 148, Cc1c(sc2ccc(CNC(═O)c3ccc(Cl)nc3)cc12)-c4ccnc(N)n4] | – | – |
| > 5 µM | < 5 µM | Cc1ccc(O)c(C(=O)NCc2ccc3sc(-c4ccnc(N)n4)c(C)c3c2)c1 [Example 141, Cc1ccc(O)c(c1)C(═O)NCc2ccc3sc(c(C)c3c2)-c4ccnc(N)n4] | – | – |
| < 5 µM | < 5 µM | CC(=O)Nc1cccc(C(=O)NCc2ccc3sc(-c4ccnc(N)n4)c(C)c3c2)c1 [Example 206, CC(═O)Nc1cccc(c1)C(═O)NCc2ccc3sc(c(C)c3c2)-c4ccnc(N)n4] | – | – |
